Measurements taken from patent US20140038953A1, “COMPOSITIONS AND METHODS FOR CARDIOVASCULAR DISEASE” (THE GENERAL HOSPITAL CORPORATION, priority 2011, published 2014).
Entries after “also recorded” stand apart in the source; their conditions may differ.

Tests used:
Assay type in all cases: in vivo
LDLR−/− mice [1] = test: Vascular calcification in LDLR−/− mice on high fat diet (Osteosense, Alizarin red); settings: high fat diet 20 weeks, 2.5 mg/kg ip daily, vs vehicle
Protocol: Fluorescence reflectance imaging (FRI), was performed as previously described. (Aikawa, E., et al. Osteogenesis associates with inflammation in early-stage atherosclerosis evaluated by molecular imaging in vivo. Circulation 116, 2841-2850 (2007); and Aikawa, E., et al. Multimodality molecular imaging identifies proteolytic and osteogenic activities in early aortic valve disease. Circulation 115, 377-386 (2007).) Animals received 150 μl of OsteoSense 680 and 150 μl of ProSense 750 via tail vein injection 24 hours before euthanasia. After dissection, aortae were subjected to ex vivo near infrared fluorescence reflectance imaging using an Odyssey Imaging System (LI-COR Biotechnology, Lincoln, Nebr.), with integrated signal intensities determined for regions of interest using software version 3.0.16.
Aortas were either immediately embedded and cryopreserved using optimal cutting-temperature medium (Sakura Tissue-Tek, Zoeterwoude, The Netherlands) or fixed in paraformaldehyde and embedded in parafin. The presence of calcification was determined by staining tissue sections with Alizarin red or Von Kossa. Lipid accumulation in tissue sections was visualized by staining with Oil Red O. Liver sections were prepared from paraformaldehyde-fixed tissue and stained with hematoxylin and eosin. […]

LDLR−/− mice [2] = test: Atheroma burden / lesion formation in LDLR−/− mice (Oil Red O, histology); settings: for lipid accumulation / atheroma burden (Oil Red O): high fat diet 20 weeks, 2.5 mg/kg ip daily, vs vehicle, 2.5 mg/kg
Protocol: (§1) Aortas were either immediately embedded and cryopreserved using optimal cutting-temperature medium (Sakura Tissue-Tek, Zoeterwoude, The Netherlands) or fixed in paraformaldehyde and embedded in parafin. The presence of calcification was determined by staining tissue sections with Alizarin red or Von Kossa. Lipid accumulation in tissue sections was visualized by staining with Oil Red O. Liver sections were prepared from paraformaldehyde-fixed tissue and stained with hematoxylin and eosin.
To confirm that BMP signaling has a direct impact on atherogenesis, the aortae explanted from the BMP inhibitor positive control compound-treated and vehicle-treated LDLr−/− mice after 20 weeks were subjected to Oil Red 0 staining to mark lipid-rich plaques.
LDLr−/− mice were started on a hypercholesterolemic diet at 8 weeks, and treated with either vehicle (saline) or a BMP inhibitor positive control compound (compound 13, 2.5 mg/kg/d intraperitoneally) for an additional 8 weeks. Aortae were harvested and fixed, and then stained with antibodies sensitive for the BMP effector molecule, phosphorylated-SMAD1/5/8, and counterstained with DAPI nuclear stain. Within 6-8 weeks of being subjected to a high fat diet, LDR−/− mice developed fatty lesions in the intima of the aortic root, based on traditional histochemical staining techniques (data not shown). […] Thus, the cellular components of lipid rich plaques, predominantly macrophage-derived foam cells, had evidence of intense activation of the BMP signaling pathway. In contrast, the lipid plaques found in the BMP inhibitor positive control compound-treated mice, which were diminished in size and extent as compared to those in vehicle-treated mice, had also diminished intensity of staining for the phosphorylated form of SMAD1/5/8 (data not shown). Thus, hypercholesterolemic mice had evidence of intense BMP signaling pathway activation in the cellular components of atheromatous lesions, and treatment of hypercholesterolemic mice with the BMP inhibitor positive control compound diminished the activation of the BMP signaling pathway in these lesions.
(§2) LDLR−/− deficient mice were intiated on an atherogenic diet (Paigen) at 8 weeks of age, and administered either vehicle, a BMP inhibitor positive control compound (compound 13, 2.5 mg/kg IP daily) or ALK3-Fc (2 mg/kg IP every other day). Each treatment group consisted of a total of 10 mice. After 4 weeks of atherogenic diet and drug or vehicle treatment, the animals were sacrificed. The frontal plane sections of the aortic arch were dissected out and stained for macrophage marker (MAC2) and counterstained with DAPI.
as §2, with “initiated” for “intiated”, “([…]” for “(2”, “day).” for “day). Each treatment group consisted of a total of 10 mice.”, “6” for “4”, “and” for “and drug or vehicle”, “phosphorylated SMAD1/5/8” for “macrophage marker (MAC2)”

LDLR−/− mice [3] = test: Hepatic steatosis in LDLR−/− mice on high fat diet; settings: high fat diet 20 weeks, 2.5 mg/kg ip daily
Protocol: as §1

Wnt3a gene expression = test: Aortic Wnt3a gene expression in MGP−/− mice; settings: 2.5 mg/kg/day IP day 1-28
Protocol: Total cellular RNA from either snap frozen tissues or cultured cells was extracted by the Phenol/guanidine method as described. (Chomczynski, P. & Sacchi, N. Single-step method of RNA isolation by acid guanidinium thiocyanate-phenol-chloroform extraction. Anal Biochem 162, 156-159 (1987).) cDNA was synthesized using Moloney murine leukemia virus reverse transcriptase (Promega, Madison, Wis., USA).
MGP−/− mice were treated with intraperitoneal (IP) injections of either vehicle or compound 13 at 2.5 mg/kg/day from day 1-28. At day 28, aortas were harvested for both histology and RNA isolation. […] To further quantify aortic calcium, a fluorescent bisphosphonate agent that specifically binds to hydroxyapatite (OsteoSense 680 nm, Perkin Elmer) was used. (Aikawa E, et al. Multimodality molecular imaging identifies proteolytic and osteogenic activities in early aortic valve disease. Circulation. 2007; 115(3):377-386 and Zaheer A, et al. In vivo near-infrared fluorescence imaging of osteoblastic activity. Nature biotechnology. 2001; 19(12):1148-1154.) MGP−/− mice at 27 days of age treated with vehicle or compound 13 received OsteoSense via tail vein, and 24 h later, aortas were harvested for imaging. […]

c1ccc2c(-c3cnn4cc(-c5ccc(N6CCNCC6)cc5)cnc34)ccnc2c1 [Compound 13, 4-[6-(4-piperazin-1-ylphenyl)pyrazolo[1,5-a]pyrimidin-3-yl]quinoline]
vascular calcification / osteogenic activity (fluor-labeled bisphosphonate uptake, Alizarin red) (LDLR−/− mice [1]): significantly less abundant; also recorded: reduced vascular calcification throughout the aortae; also recorded: severely diminished evidence of osteogenesis
vascular calcification / osteogenic activity (fluor-labeled bisphosphonate uptake, Alizarin red) (LDLR−/− mice [1]; listed as BMP inhibitor positive control compound): can reduce vascular calcification
lesion formation in aortic arch (LDLR−/− mice [2]; LDLR−/− mice, atherogenic diet and treatment 4 weeks, compound 13 2.5 mg/kg IP daily, ALK3-Fc 2 mg/kg IP every other day): decreased lesion formation overall
lesion formation / atherogenesis (LDLR−/− mice [2]; LDLR−/− mice, atherogenic diet and treatment 6 weeks): decreased lesion formation overall
lipid accumulation / atheroma burden (Oil Red O) (LDLR−/− mice [2]; LDLR−/− mice): Atheroma burden was reduced; also recorded: marked reduction
lipid accumulation / atheroma burden (Oil Red O) (LDLR−/− mice [2]; LDLR−/− mice, listed as BMP inhibitor positive control compound): consistently more severe in vehicle-treated
intimal atheroma formation (LDLR−/− mice [2]; LDLr−/− mice, hypercholesterolemic diet and treatment 8 weeks, 2.5 mg/kg/d ip): reduced intimal atheroma formation
hepatic steatosis (LDLR−/− mice [3]; 2.5 mg/kg): protected from hepatic steatosis
hepatic steatosis (LDLR−/− mice [3]; listed as compound 13, 2.5 mg/kg): could be prevented
reduction in aortic Wnt3a gene expression (Wnt3a gene expression): > 5 fold
